Earlier results in patent US20020045179A1, “Toxicity typing using mesenchymal stem cells” (priority 2000, published 2002).
Read-outs that look alike come from different tables or passages of the source.

Key:
[1] = in vivo
[2] = for liver toxicity (in words): predetermined toxicity stated in text of Example 2
[3] = in vivo; remark: listed apart in the source
[4] = in vivo; remark: listed apart in the source
[5] = Table 1, predetermined toxicity by tissue/organ

N.N.O=C([O-])C1(C(=O)[O-])CCC1.[Pt+2] [carboplatin]
TOXICITIES GI [1]: +

CCOC(=O)C(C)(C)Oc1ccc(Cl)cc1 [clofibrate]
TOXICITIES LIVER [2, 5]: ntc

CC(=O)Nc1ccc(O)cc1 [acetominophen]
TOXICITIES LIVER ([2]; in vivo): +

CN(CCOc1ccc(CC2SC(=O)NC2=O)cc1)c1ccccn1 (stereo not drawn) [rosiglitazone]
TOXICITIES LIVER [2, 5]: ntc

CCC(=O)O[C@H]1[C@H](O[C@@H]2[C@@H](C)[C@H](O[C@H]3C[C@@](C)(OC)[C@@H](O)[C@H](C)O3)[C@@H](C)C(=O)O[C@H](CC)[C@@](C)(O)[C@H](O)[C@@H](C)C(=O)[C@H](C)C[C@@]2(C)O)O[C@H](C)C[C@@H]1N(C)C [erythromycin estolate]
liver toxicity (in words) [2]: known liver toxicity

Cc1c(C)c2c(c(C)c1O)CCC(C)(COc1ccc(CC3SC(=O)NC3=O)cc1)O2 (stereo not drawn) [troglitazone]
liver toxicity (in words) [2]: rare but severe liver toxicity

c1ccc2c(c1)cc1ccc3cccc4ccc2c1c34 [benzo(a)pyrene]
TOXICITIES CV [3]: +

N=C(N)NCCCCCCC(=O)NC(O)C(=O)NCCCCNCCCN (stereo not drawn) [deoxyspergualin]
TOXICITIES CV [3]: +

COc1nc(C(Cl)(Cl)Cl)c(Cl)c(OC)c1Cl [penclomedine]
TOXICITIES CNS [4]: +
